According to patent publication US9550778B2, “Substituted 6-aryl-imidazopyridine and 6-aryl-triazolopyridine carboxamide analogs as negative allosteric modulators of mGluR5” (Vanderbilt University, priority 2014, dated 2017):

Assays:
rat mGluR5 = rat mGluR5 (Rattus norvegicus (Rat), UniProt P31424); test: Calcium mobilization assay in HEK 293A cells stably expressing rat mGluR5; format: cell-based; settings: for IC50: HEK cells transfected with rat mGluR5, inhibition of glutamate EC80 response, ± standard error where average of at least three experiments; for remaining activity at 30 µM: HEK293-A, amplitude of response in the presence of 30 μM test compound as a percentage of maximal response (100 μM glutamate), read-out: % Glu Max
rat mGluR5, sequence (P31424 21-1203): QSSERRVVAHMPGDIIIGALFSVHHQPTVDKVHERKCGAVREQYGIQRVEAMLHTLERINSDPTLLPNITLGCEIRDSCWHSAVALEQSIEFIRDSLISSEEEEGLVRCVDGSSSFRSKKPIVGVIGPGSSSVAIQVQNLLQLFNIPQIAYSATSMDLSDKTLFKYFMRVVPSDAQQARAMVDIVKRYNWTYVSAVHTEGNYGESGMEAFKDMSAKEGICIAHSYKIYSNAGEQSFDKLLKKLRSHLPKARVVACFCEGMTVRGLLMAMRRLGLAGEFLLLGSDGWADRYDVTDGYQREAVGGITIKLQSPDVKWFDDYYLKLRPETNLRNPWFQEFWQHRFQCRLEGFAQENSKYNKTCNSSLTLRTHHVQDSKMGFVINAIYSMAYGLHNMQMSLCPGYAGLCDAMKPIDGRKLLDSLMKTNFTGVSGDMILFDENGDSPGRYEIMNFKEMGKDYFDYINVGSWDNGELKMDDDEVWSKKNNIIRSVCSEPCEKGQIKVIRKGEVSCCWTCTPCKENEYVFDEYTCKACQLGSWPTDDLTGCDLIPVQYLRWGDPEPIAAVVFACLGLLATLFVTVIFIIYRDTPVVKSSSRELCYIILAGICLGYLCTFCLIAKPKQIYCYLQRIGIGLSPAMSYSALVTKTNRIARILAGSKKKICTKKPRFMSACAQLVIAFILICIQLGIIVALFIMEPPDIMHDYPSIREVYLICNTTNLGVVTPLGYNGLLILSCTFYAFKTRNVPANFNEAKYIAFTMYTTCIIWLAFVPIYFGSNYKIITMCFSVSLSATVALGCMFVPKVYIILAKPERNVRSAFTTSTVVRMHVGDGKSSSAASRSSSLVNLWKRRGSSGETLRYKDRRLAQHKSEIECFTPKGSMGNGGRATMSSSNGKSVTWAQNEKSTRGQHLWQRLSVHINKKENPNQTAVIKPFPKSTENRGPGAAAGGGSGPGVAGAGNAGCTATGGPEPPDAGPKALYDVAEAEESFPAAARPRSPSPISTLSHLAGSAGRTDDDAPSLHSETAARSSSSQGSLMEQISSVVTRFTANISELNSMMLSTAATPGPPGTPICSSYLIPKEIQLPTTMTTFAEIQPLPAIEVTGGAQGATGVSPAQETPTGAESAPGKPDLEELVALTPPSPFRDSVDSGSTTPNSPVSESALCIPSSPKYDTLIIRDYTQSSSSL
Description: The cells were grown overnight at 37° C. in the presence of 5% CO2. […] Dye was removed, 20 μL of assay buffer was added, and the plate was incubated for 5 minutes at room temperature.
Ca^2+ flux was measured using the Functional Drug Screening System (FDSS7000, Hamamatsu, Japan). After establishment of a fluorescence baseline for about 3 seconds, the compounds of the present invention were added to the cells, and the response in cells was measured. 2.3 minutes later an EC20 concentration of the mGluR5 receptor agonist glutamate was added to the cells, and the response of the cells was measured for 1.9 minutes; an EC80 concentration of agonist was added and readings taken for an additional 1.7 minutes. All test compounds were dissolved and diluted to a concentration of 10 mM in 100% DMSO. Compounds were then serially diluted 1:3 in DMSO into 10 point concentration response curves, transferred to daughter plates, and further diluted into assay buffer to a 2× stock. Calcium fluorescence measures were recorded as fold over basal fluorescence; raw data was then normalized to the maximal response to glutamate.
The raw data file containing all time points was used as the data source in the analysis template. This was saved by the FDSS as a tab-delimited text file. Data were normalized using a static ratio function (F/F0) for each measurement of the total 360 values per well divided by each well's initial value. Data were then reduced to peak amplitudes (Max−Initial Min) using a time range that starts approximately 3 seconds prior to the glutamate EC20/EC80 addition and continues for approximately 90-120 seconds. This is sufficient time to capture the peak amplitude of the cellular calcium response. Individual amplitudes were expressed as % EMax by multiplying each amplitude by 100 and then dividing the product by the mean of the amplitudes derived from the glutamate ECMax-treated wells. IC50 values for test compounds were generated by fitting the normalized values versus the log of the test compound concentration (in mol/L) using a 4 parameter logistic equation where none of the parameters were fixed. Each of the three values collected at each concentration of test compound were weighted evenly.
The mGluR5 activity was determined using the calcium mobilization assays in human embryonic kidney cells as described herein below, wherein the human embryonic kidney cells were transfected with rat mGluR5. The mGluR5 activity data for some compounds are shown as the average of at least three experiments with the standard error in these cases. If no error is indicated for the mGluR5 activity, the values given represent the results from a single experiment or the average of two experiments. The compounds in Table 1 were synthesized with methods identical or analogous to those shown herein. The requisite starting materials were commercially available, described in the literature, or readily synthesized by one skilled in the art of organic synthesis.
GluMax is the amplitude of response in the presence of 30 μM test compound as a percentage of maximal response (100 μM glutamate). Partial antagonists display concentration-response curves (CRCs) that plateau above 10%.

mGluR4 = mGluR4 (Homo sapiens (Human), UniProt Q14833); settings: cited from earlier work
mGluR4, sequence (Q14833 33-912): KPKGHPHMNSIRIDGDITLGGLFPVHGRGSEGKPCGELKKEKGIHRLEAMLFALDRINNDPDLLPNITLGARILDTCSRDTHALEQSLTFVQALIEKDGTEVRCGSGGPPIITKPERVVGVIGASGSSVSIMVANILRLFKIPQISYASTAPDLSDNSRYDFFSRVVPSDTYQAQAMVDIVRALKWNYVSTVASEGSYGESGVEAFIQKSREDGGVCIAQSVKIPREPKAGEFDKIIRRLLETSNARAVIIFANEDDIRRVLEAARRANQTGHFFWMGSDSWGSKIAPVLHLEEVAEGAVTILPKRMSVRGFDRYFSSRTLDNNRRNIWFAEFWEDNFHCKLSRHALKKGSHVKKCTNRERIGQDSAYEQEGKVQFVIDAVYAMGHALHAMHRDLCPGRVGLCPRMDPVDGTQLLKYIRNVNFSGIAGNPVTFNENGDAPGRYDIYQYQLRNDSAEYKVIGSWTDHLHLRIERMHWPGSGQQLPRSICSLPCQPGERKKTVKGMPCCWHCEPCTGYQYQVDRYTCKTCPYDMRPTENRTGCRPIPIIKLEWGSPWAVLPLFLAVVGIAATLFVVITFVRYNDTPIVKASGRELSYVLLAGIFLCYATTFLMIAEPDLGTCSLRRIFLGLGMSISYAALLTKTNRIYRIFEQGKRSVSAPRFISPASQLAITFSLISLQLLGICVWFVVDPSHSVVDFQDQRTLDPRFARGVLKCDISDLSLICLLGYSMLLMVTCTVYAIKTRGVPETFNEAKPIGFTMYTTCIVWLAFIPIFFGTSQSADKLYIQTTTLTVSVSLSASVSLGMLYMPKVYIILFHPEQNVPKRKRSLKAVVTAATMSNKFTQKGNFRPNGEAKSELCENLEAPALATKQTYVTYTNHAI

[1] = tested on: N-methyl-D-aspartate (NMDA) receptor; settings: at higher concentrations; cited from earlier work
[2] = intravenous administration, rhesus monkeys; cited from earlier work
cytochrome P450 1A2 = cytochrome P450 1A2 (Homo sapiens (Human), UniProt P05177); settings: cited from earlier work
cytochrome P450 1A2, sequence (P05177 whole entry, species assumed): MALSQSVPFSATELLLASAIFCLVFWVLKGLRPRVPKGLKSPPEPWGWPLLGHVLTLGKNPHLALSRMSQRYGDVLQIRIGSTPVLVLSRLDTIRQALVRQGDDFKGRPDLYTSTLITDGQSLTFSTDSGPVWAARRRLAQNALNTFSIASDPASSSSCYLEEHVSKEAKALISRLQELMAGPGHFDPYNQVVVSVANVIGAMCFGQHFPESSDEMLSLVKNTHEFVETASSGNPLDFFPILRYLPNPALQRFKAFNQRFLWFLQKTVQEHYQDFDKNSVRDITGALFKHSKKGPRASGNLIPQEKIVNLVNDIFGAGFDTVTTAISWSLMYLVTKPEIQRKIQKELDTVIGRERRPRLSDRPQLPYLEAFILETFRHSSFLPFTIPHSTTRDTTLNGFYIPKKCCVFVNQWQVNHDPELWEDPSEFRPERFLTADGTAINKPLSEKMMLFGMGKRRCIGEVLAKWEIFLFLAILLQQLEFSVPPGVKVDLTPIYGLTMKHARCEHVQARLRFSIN

Structure (SMILES): CCc1cccc(NC(=O)c2cc(-c3cnccc3C)cn3ncnc23)n1
- IC50 (rat mGluR5): 1760 nM

Structure (SMILES): Cc1ccc(NC(=O)c2cc(-c3cnccc3C)cn3ncnc23)nc1
- IC50 (rat mGluR5): 325 nM

Structure (SMILES): Cc1ccncc1-c1cc(C(=O)Nc2ccc(F)cn2)c2ncnn2c1
- remaining activity at 30 µM (rat mGluR5): 52%
- IC50 (rat mGluR5): > 10000 nM

Structure (SMILES): Cc1ccncc1-c1cc(C(=O)Nc2ccccn2)c2ncnn2c1
- IC50 (rat mGluR5): 358 nM

Structure (SMILES): COc1ccc(NC(=O)c2cc(-c3cnccc3C)cn3ncnc23)nc1
- IC50 (rat mGluR5): 1310 nM

Structure (SMILES): Cc1cccc(NC(=O)c2cc(-c3cnccc3C)cn3ncnc23)n1
- IC50 (rat mGluR5): 793 nM

Structure (SMILES): COc1cccc(NC(=O)c2cc(-c3cnccc3C)cn3ncnc23)n1
- remaining activity at 30 µM (rat mGluR5): 31%
- IC50 (rat mGluR5): > 10000 nM

Structure (SMILES): Cc1csc(NC(=O)c2cc(-c3cnccc3C)cn3ncnc23)n1
- IC50 (rat mGluR5): 170 nM

Structure (SMILES): Cc1csc(NC(=O)c2cc(-c3ccccc3)cn3ncnc23)n1
- IC50 (rat mGluR5): 385 nM

Structure (SMILES): Cc1csc(NC(=O)c2cc(-c3ccc4ncccc4c3)cn3ncnc23)n1
- remaining activity at 30 µM (rat mGluR5): 74%
- IC50 (rat mGluR5): > 10000 nM

Structure (SMILES): Cc1csc(NC(=O)c2cc(-c3cccnc3)cn3ncnc23)n1
- IC50 (rat mGluR5): 587 nM

Structure (SMILES): Cc1csc(NC(=O)c2cc(-c3cc(C)nn3C)cn3ncnc23)n1
- IC50 (rat mGluR5): 690 nM

Structure (SMILES): Cc1cccc(-c2cc(C(=O)Nc3nc(C)cs3)c3ncnn3c2)c1
- IC50 (rat mGluR5): 4770 nM

Structure (SMILES): Cc1csc(NC(=O)c2cc(-c3ccc4occc4c3)cn3ncnc23)n1
- IC50 (rat mGluR5): > 30000 nM

Structure (SMILES): Cc1csc(NC(=O)c2cc(-c3cnc(F)c(C)c3)cn3ncnc23)n1
- IC50 (rat mGluR5): 2810 nM

Structure (SMILES): Cc1csc(NC(=O)c2cc(-c3cccc4c3cnn4C)cn3ncnc23)n1
- IC50 (rat mGluR5): 7020 nM

Structure (SMILES): Cc1cc(-c2cc(C(=O)Nc3nc(C)cs3)c3ncnn3c2)ccn1
- IC50 (rat mGluR5): 10000 nM

Structure (SMILES): COc1cnc(-c2cc(C(=O)Nc3nc(C)cs3)c3ncnn3c2)cn1
- remaining activity at 30 µM (rat mGluR5): 71%
- IC50 (rat mGluR5): > 10000 nM

Structure (SMILES): Cc1csc(NC(=O)c2cc(-c3cn(C)nc3C)cn3ncnc23)n1
- IC50 (rat mGluR5): 2160 nM

Structure (SMILES): Cc1csc(NC(=O)c2cc(-c3ccc(F)nc3)cn3ncnc23)n1
- IC50 (rat mGluR5): 4930 nM

Structure (SMILES): Cc1csc(NC(=O)c2cc(-c3cccnc3F)cn3ncnc23)n1
- IC50 (rat mGluR5): 978 nM

Structure (SMILES): Cc1csc(NC(=O)c2cc(-c3ccc4c(ccn4C)c3)cn3ncnc23)n1
- remaining activity at 30 µM (rat mGluR5): 27%
- IC50 (rat mGluR5): > 10000 nM

Structure (SMILES): Cc1csc(NC(=O)c2cc(-c3ccc4c(cnn4C)c3)cn3ncnc23)n1
- remaining activity at 30 µM (rat mGluR5): 53%
- IC50 (rat mGluR5): > 10000 nM

Structure (SMILES): Cc1csc(NC(=O)c2cc(-c3cc4ccccc4o3)cn3ncnc23)n1
- remaining activity at 30 µM (rat mGluR5): 39%
- IC50 (rat mGluR5): > 10000 nM

Structure (SMILES): Cc1csc(NC(=O)c2cc(-c3cccc4cnn(C)c34)cn3ncnc23)n1
- IC50 (rat mGluR5): 10200 nM

Structure (SMILES): Cc1csc(NC(=O)c2cc(-c3ccc4cnn(C)c4c3)cn3ncnc23)n1
- remaining activity at 30 µM (rat mGluR5): 30%
- IC50 (rat mGluR5): > 10000 nM

Structure (SMILES): Cc1cncc(-c2cc(C(=O)Nc3nc(C)cs3)c3ncnn3c2)c1
- IC50 (rat mGluR5): 1500 nM

Structure (SMILES): Cc1cc(C)cc(-c2cc(C(=O)Nc3nc(C)cs3)c3ncnn3c2)c1
- remaining activity at 30 µM (rat mGluR5): 57%
- IC50 (rat mGluR5): > 10000 nM

Structure (SMILES): Cc1csc(NC(=O)c2cc(-c3ccccc3C)cn3ncnc23)n1
- IC50 (rat mGluR5): 7940 nM

Structure (SMILES): COc1ccc(C)c(-c2cc(C(=O)Nc3nc(C)cs3)c3ncnn3c2)c1
- IC50 (rat mGluR5): 7100 nM

Structure (SMILES): Cc1csc(NC(=O)c2cc(-c3cnccc3C3CC3)cn3ncnc23)n1
- IC50 (rat mGluR5): 1010 nM

Structure (SMILES): CCc1ccncc1-c1cc(C(=O)Nc2nc(C)cs2)c2ncnn2c1
- IC50 (rat mGluR5): 984 nM

Structure (SMILES): Cc1csc(NC(=O)c2cc(-c3cccc(F)c3)cn3ncnc23)n1
- IC50 (rat mGluR5): 788 nM

Structure (SMILES): Cc1csc(NC(=O)c2cc(-c3cnn(C)c3)cn3ncnc23)n1
- remaining activity at 30 µM (rat mGluR5): 30%
- IC50 (rat mGluR5): > 10000 nM

Structure (SMILES): Cc1csc(NC(=O)c2cc(-c3ccnn3C)cn3ncnc23)n1
- IC50 (rat mGluR5): 378 ± 17 nM

Structure (SMILES): CCn1nccc1-c1cc(C(=O)Nc2nc(C)cs2)c2ncnn2c1
- IC50 (rat mGluR5): 3920 nM

Structure (SMILES): Cc1csc(NC(=O)c2cc(-c3cncnc3)cn3ncnc23)n1
- IC50 (rat mGluR5): 758 ± 280 nM

Structure (SMILES): Cc1cc(-c2cc(C(=O)Nc3nc(C)cs3)c3ncnn3c2)[nH]n1
- IC50 (rat mGluR5): 60 ± 8 nM

Structure (SMILES): Cc1csc(NC(=O)c2cc(-c3ccncc3)cn3ncnc23)n1
- IC50 (rat mGluR5): 8070 nM

Structure (SMILES): Cc1csc(NC(=O)c2cc(-c3ccnnc3)cn3ncnc23)n1
- remaining activity at 30 µM (rat mGluR5): 27%
- IC50 (rat mGluR5): > 10000 nM

Structure (SMILES): Cc1csc(NC(=O)c2cc(-c3cnncc3C)cn3ncnc23)n1
- IC50 (rat mGluR5): 2910 nM

Structure (SMILES): Cc1csc(NC(=O)c2cc(-c3ccn(C)n3)cn3ncnc23)n1
- remaining activity at 30 µM (rat mGluR5): 70%
- IC50 (rat mGluR5): > 10000 nM

Structure (SMILES): Cc1cc(-c2cc(C(=O)Nc3ccccn3)c3nccn3c2)[nH]n1
- IC50 (rat mGluR5): 1140 nM

Structure (SMILES): Cc1cc(-c2cc(C(=O)Nc3nc(C)cs3)c3nccn3c2)[nH]n1
- IC50 (rat mGluR5): 1410 nM

Structure (SMILES): Cc1ccc(NC(=O)c2cc(-c3cc(C)n[nH]3)cn3ccnc23)nc1
- IC50 (rat mGluR5): 5110 nM

Structure (SMILES): Cc1cc(-c2cc(C(=O)Nc3ccc(F)cn3)c3nccn3c2)[nH]n1
- IC50 (rat mGluR5): 3930 nM

Structure (SMILES): Cc1cc(-c2cc(C(=O)Nc3ccc(F)cn3)c3ncnn3c2)n(C)n1
- IC50 (rat mGluR5): 2130 nM

Structure (SMILES): Cc1cc(-c2cc(C(=O)Nc3cccc(F)n3)c3ncnn3c2)n(C)n1
- IC50 (rat mGluR5): 835 nM

Structure (SMILES): Cn1nccc1-c1cc(C(=O)Nc2ccc(F)cn2)c2nncn2c1
- IC50 (rat mGluR5): 1450 nM

Structure (SMILES): Cc1cc(-c2cc(C(=O)Nc3ccc(F)cn3)c3ncnn3c2)[nH]n1
- IC50 (rat mGluR5): > 30000 nM

Structure (SMILES): Cc1cccc(C#Cc2ccccc2)n1 [MPEP, 2-methyl-6-(phenylethynyl)pyridine]
- activity at mGluR4 (mGluR4): positive allosteric modulator
- inhibition of NMDA receptor activity [1]: directly inhibit

Structure (SMILES): Cc1nc(C#Cc2cccnc2)cs1 [MTEP, 3-[(2-methyl-1,3-thiazol-4-yl)ethynyl]pyridine]
- clearance [2]: efficiently cleared
- inhibition of cytochrome P450 1A2 (cytochrome P450 1A2): potent inhibitor
